Reference: patent publication US12275729B2 (Merck Sharp & Dohme LLC, priority 2017, dated 2025)

These compounds were tested against IDO1 (Homo sapiens, UniProt P14902) (assay: IDO1 Cellular Assay in HeLa Cells Stimulated with IFNγ). Details: about 48 hours, read-out: Hela IC50.
Type: cell-based

Sequence of IDO1 (P14902 whole entry): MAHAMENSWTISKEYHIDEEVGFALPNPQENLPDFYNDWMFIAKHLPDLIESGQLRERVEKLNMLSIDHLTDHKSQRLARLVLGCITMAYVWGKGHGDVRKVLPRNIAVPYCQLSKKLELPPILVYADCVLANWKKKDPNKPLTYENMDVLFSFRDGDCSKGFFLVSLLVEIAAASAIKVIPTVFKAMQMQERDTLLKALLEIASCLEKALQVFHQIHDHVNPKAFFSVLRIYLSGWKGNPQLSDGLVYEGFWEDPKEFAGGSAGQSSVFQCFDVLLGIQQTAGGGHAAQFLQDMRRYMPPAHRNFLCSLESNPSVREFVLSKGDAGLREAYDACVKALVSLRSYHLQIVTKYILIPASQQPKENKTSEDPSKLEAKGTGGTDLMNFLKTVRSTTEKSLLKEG

Row | SMILES | IC50 [µM]
1 | Cc1ccnc(C(=O)N2CCCc3nc(C4(C(=O)Nc5ccc(F)cc5)COC4)ccc32)n1 [Example 400, N-(4-fluorophenyl)-3-(5-(4-methylpyrimidine-2-carbonyl)-5,6,7,8-tetrahydro-1,5-naphthyridin-2-yl)oxetane-3-carboxamide] | 0.00191
2 | Cc1nccc(N2CCCc3nc(C4(C(=O)Nc5ccc(F)cc5)CCC4)ccc32)n1 [Example 403, N-(4-fluorophenyl)-1-(5-(2-methylpyrimidin-4-yl)-5,6,7,8-tetrahydro-1,5-naphhyridin-2-yl)cyclobutane-1-carboxamide] | 0.00215
3 | O=C(Nc1ccc(F)cc1)C1(c2ccc3c(n2)CCCN3c2ccnc(C(F)(F)F)n2)CCC1 [Example 407, N-(4-fluorophenyl)-1-(5-(2-(trifluoromethyl)pyrimidin-4-yl)-5,6,7,8-tetrahydro-1,5-naphthyridin-2-yl)cyclobutane-1-carboxamide] | 0.00149
4 | O=C(Nc1ccc(Cl)cc1)C1(c2ccc3c(n2)CCCN3c2cccc(C(F)(F)F)n2)CCC1 [Example 409, N-(4-chlorophenyl)-1-(5-(6-(trifluoromethyl)pyridin-2-yl)-5,6,7,8-tetrahydro-1,5-naphthyridin-2-yl)cyclobutane-1-carboxamide] | 0.00174
5 | O=C(OC1CC1)N1CCCc2nc(C3(C(=O)Nc4ccc(Cl)cc4)COC3)ccc21 [compound 398, cyclopropyl 6-(3-((4-chlorophenyl)carbamoyl)oxetan-3-yl)-3,4-dihydro-1,5-naphthyridine-1(2H)-carboxylate] | 0.00148

Same assay, conditions: read-out: Hela IC50

Row | SMILES | IC50 [µM]
6 | CC(C)Oc1cccc(N2CCCc3nc(C(C)NC(=O)c4ccc(Cl)cc4)ccc32)n1 (stereo not shown) [Example 353, 4-chloro-N-(1-(5-(6-isopropoxypyridin-2-yl)-5,6,7,8-tetrahydro-1,5-naphthyridin-2-yl)ethyl)benzamide] | 0.0772
7 | CC(NC(=O)c1ccc(F)cc1)c1ccc2c(n1)CCCN2c1cccc(C(F)(F)F)n1 (stereo not shown) [Example 354, 4-fluoro-N-(1-(5-(6-(trifluoromethyl)pyridin-2-yl)-5,6,7,8-tetrahydro-1,5-naphthyridin-2-yl)ethyl)benzamide] | 0.0105
8 | Cc1nc(N2CCCc3nc(C(C)NC(=O)c4ccc(Cl)cc4)ccc32)c2cc(Cl)ccc2n1 (stereo not shown) [Example 359, 5-(6-chloro-2-methylquinazolin-4-yl)-2-(1-(4-chlorobenzamido)ethyl)-5,6,7,8-tetrahydro-1,5-naphthyridin-1-ium 2,2,2-trifluoroacetate] | 0.025
9 | Cc1nc(N2CCCc3nc(C(C)NC(=O)c4ccc(Cl)cc4)ccc32)c2cc(F)ccc2n1 (stereo not shown) [Example 360, 2-(1-(4-chlorobenzamido)ethyl)-5-(6-fluoro-2-methylquinazolin-4-yl)-5,6,7,8-tetrahydro-1,5-naphthyridin-1-ium 2,2,2-trifluoroacetate] | 0.0256
10 | CC(NC(=O)c1ccc(Cl)cc1)c1ccc2c(n1)CCCN2c1nc(Cl)nc2c1CCCC2 (stereo not shown) [Example 361, 5-(2-chloro-5,6,7,8-tetrahydroquinazolin-4-yl)-2-(1-(4-chlorobenzamido)ethyl)-5,6,7,8-tetrahydro-1,5-naphthyridin-1-ium 2,2,2-trifluoroacetate] | 0.00835
11 | CC(C(=O)Nc1ccc(F)cc1)c1ccc2c(n1)CCCN2c1ccnc(C2CC2)n1 (stereo not shown) [Example 367, 2-(5-(2-cyclopropylpyrimidin-4-yl)-5,6,7,8-tetrahydro-1,5-naphthyridin-2-yl)-N-(4-fluorophenyl)propanamide] | 0.00181
12 | CC(NC(=O)c1ccc(F)cc1)c1ccc2c(n1)CCCN2c1cc2n(n1)CCC2 (stereo not shown) [Example 369, N-(1-(5-(5,6-dihydro-4H-pyrrolo[1,2-b]pyrazol-2-yl)-5,6,7,8-tetrahydro-1,5-naphthyridin-2-yl)ethyl)-4-fluorobenzamide] | 0.697
13 | CC(NC(=O)c1ccc(F)cc1)c1ccc2c(n1)CCCN2c1ccn2ncnc2n1 (stereo not shown) [Example 370, N-(1-(5-([1,2,4]triazolo[1,5-a]pyrimidin-5-yl)-5,6,7,8-tetrahydro-1,5-naphthyridin-2-yl)ethyl)-4-fluorobenzamide] | 1.8
14 | Cc1nccc(N2CCCc3nc(C(C)C(=O)Nc4ccc(F)cc4)ccc32)n1 (stereo not shown) [Example 371, N-(4-fluorophenyl)-2-(5-(2-methylpyrimidin-4-yl)-5,6,7,8-tetrahydro-1,5-naphthyridin-2-yl)propanamide] | 0.00272
15 | Cc1nccc(N2CCCc3nc(C(C)C(=O)Nc4ccc(F)cc4)ccc32)n1 (stereo not shown) [Example 372, N-(4-fluorophenyl)-2-(5-(2-methylpyrimidin-4-yl)-5,6,7,8-tetrahydro-1,5-naphthyridin-2-yl)propanamide] | 0.00534
16 | Cc1nccc(N2CCCc3nc(C(C)C(=O)Nc4ccc(F)cc4)ccc32)n1 (stereo not shown) [Example 373, N-(4-fluorophenyl)-2-(5-(2-methylpyrimidin-4-yl)-5,6,7,8-tetrahydro-1,5-naphthyridin-2-yl)propanamide] | 0.00638
17 | CC(NC(=O)c1ccc(F)cc1)c1ccc2c(n1)CCCN2c1ncccc1F (stereo not shown) [Example 375, 4-fluoro-N-(1-(5-(3-fluoropyridin-2-yl)-5,6,7,8-tetrahydro-1,5-naphthyridin-2-yl)ethyl)benzamide] | 1.53
18 | CC(NC(=O)c1ccc(F)cc1)c1ccc2c(n1)CCCN2c1ccc(F)cn1 (stereo not shown) [Example 376, 4-fluoro-N-(1-(5-(5-fluoropyridin-2-yl)-5,6,7,8-tetrahydro-1,5-naphthyridin-2-yl)ethyl)benzamide] | 0.0996
19 | COc1ccnc(N2CCCc3nc(C(C)NC(=O)c4ccc(F)cc4)ccc32)c1 (stereo not shown) [Example 377, 4-fluoro-N-(1-(5-(4-methoxypyridin-2-yl)-5,6,7,8-tetrahydro-1,5-naphthyridin-2-yl)ethyl)benzamide] | 0.315
20 | CC(NC(=O)c1ccc(F)cc1)c1ccc2c(n1)CCCN2c1cc(C#N)ccn1 (stereo not shown) [Example 378, N-(1-(5-(4-cyanopyridin-2-yl)-5,6,7,8-tetrahydro-1,5-naphthyridin-2-yl)ethyl)-4-fluorobenzamide] | 0.352
21 | COc1cc(N2CCCc3nc(C(C)NC(=O)c4ccc(F)cc4)ccc32)ncn1 (stereo not shown) [Example 379, 4-fluoro-N-(1-(5-(6-methoxypyrimidin-4-yl)-5,6,7,8-tetrahydro-1,5-naphthyridin-2-yl)ethyl)benzamide] | 0.013
22 | CC(NC(=O)c1ccc(F)cc1)c1ccc2c(n1)CCCN2c1cc(F)ccn1 (stereo not shown) [Example 380, 4-fluoro-N-(1-(5-(4-fluoropyridin-2-yl)-5,6,7,8-tetrahydro-1,5-naphthyridin-2-yl)ethyl)benzamide] | 0.0745
23 | C[C@H](NC(=O)c1ccc(F)cc1)c1ccc2c(n1)CCCN2c1cccc(OC(C)(C)C)n1 [Example 385, (S)-N-(1-(5-(6-(tert-butoxy)pyridin-2-yl)-5,6,7,8-tetrahydro-1,5-naphthyridin-2-yl)ethyl)-4-fluorobenzamide] | 0.968
24 | C[C@H](NC(=O)c1ccc(F)cc1)c1ccc2c(n1)CCCN2c1cccc(=O)[nH]1 [Example 386, (S)-2-(1-(4-fluorobenzamido)ethyl)-5-(6-oxo-1,6-dihydropyridin-2-yl)-5,6,7,8-tetrahydro-1,5-naphthyridin-1-ium 2,2,2-trifluoroacetate] | 0.0414
25 | C[C@H](NC(=O)c1ccc(F)cc1)c1ccc2c(n1)CCCN2c1cccc(F)n1 [Example 387, (S)-4-fluoro-N-(1-(5-(6-fluoropyridin-2-yl)-5,6,7,8-tetrahydro-1,5-naphthyridin-2-yl)ethyl)benzamide] | 0.0257
26 | O=C(OC1CC1)N1CCCc2nc(C3(C(=O)Nc4ccc(Cl)cc4)CCC3)ccc21 [Example 411, cyclopropyl 6-(1-((4-chlorophenyl)carbamoyl)cyclobutyl)-3,4-dihydro-1,5-naphthyridine-1(2H)-carboxylate] | 0.00073
27 | O=C(OC1CC1)N1CCCc2nc(C3(C(=O)Nc4ccc(Cl)nc4)CCC3)ccc21 [Example 412, cyclopropyl 6-(1-((6-chloropyridin-3-yl)carbamoyl)cyclobutyl)-3,4-dihydro-1,5-naphthyridine-1(2H)-carboxylate] | 0.00092
28 | O=C(Nc1ccc(F)cc1)C1(c2ccc3c(n2)CCCN3c2ccnc(C(F)(F)F)n2)CC2(CC2)C1 [Example 416, N-(4-fluorophenyl)-5-(5-(2-(trifluoromethyl)pyrimidin-4-yl)-5,6,7,8-tetrahydro-1,5-naphthyridin-2-yl)spiro[2.3]hexane-5-carboxamide] | 0.00079
